Assay results from patent publication US20120027720A1, “PEPTIDE CONJUGATES” (priority 2008, published 2012).
*1 amine or outer side, *2 acyl side, *3 side chain or, on linkers, in order; H or OH if unused. Where no end group is shown, it is not given here. [ ]: non-standard residue; d: D form. Cys(StBu) = L-S-tert-butylthio-cysteine, CC(C)(C)SSC[C@H](N[*:1])C(=O)[*:2]; Phe(4-NO2) = N[C@@H](Cc1ccc([N+](=O)[O-])cc1)C(=O)O; Tic = O=C(O)[C@@H]1Cc2ccccc2CN1; Cit = NC(=O)NCCC[C@H](N)C(=O)O; AllylGly = C=CC[C@H](N)C(=O)O; hSer = N[C@@H](CCO)C(=O)O

What was measured:
[1] = test system: CaCo2 monolayers; test: Epithelial flux of Lucifer Yellow through cell monolayer; type: cell-based; design: key to Enhanced LY permeability: + indicates an enhancement of the permeability of the tight junctions were observed; − indicates no enhancement of permeability was observed; settings: Lucifer Yellow flux, Caco-2 monolayer
Source text: (§1) Agonists of tight junctions can be identified by their ability to enhance the flux of compounds (e.g. ions, Lucifer Yellow) through a cell monolayer that comprises tight junctions; or by their ability to reduce TEER across a cell monolayer that comprises tight junctions. Treatment of CaCo2 monolayers with peptide FCIGRL (SEQ ID NO: 1) led to a 51-fold enhancement of Lucifer Yellow permeability through CaCo2 monolayers compared to vehicle alone. Treatment of CaCo2 monolayers with peptide FCIGRL led to a 16-fold decrease in TEER across CaCo2 monolayers compared to vehicle alone.
(§2) Determination of TEER and Lucifer Yellow Flux
(§3) Prepare Modified Hank's Balanced Salt Solution (MHBSS) by obtaining 1 L bottle of HBSS removing 10 ml of HBSS and replacing it with 10 ml HEPES buffer pH 7.0. Adjust pH to 7.4±0.1 using concentrated NaOH (10N).
(§4) Remove Caco-2 cells from incubator, grown on 12-well, […], polycarbonate Transwell® filters (Corning) and record passage#, date cells seeded and age in days.
(§5) Aspirate cell culture medium from both the apical (AP) and basolateral (BL) compartments, replacing with 0.5 ml and 1.5 ml of MHBSS, respectively. Incubate cells at 37° C. for 30 minutes.
(§6) Aspirate solution from the apical compartment of each filter (n=3 per condition) and replace with 0.5 ml of control and test solutions containing Lucifer Yellow and test compound if appropriate.
(§7) Place all plates into incubator set at 37° C. (±0.2), 50 RPM (±5) for a total of 180 minutes.
At t=60, 120 and 180 minutes remove 100 μl from each basolateral compartment and place it in a 96-well plate for Lucifer Yellow analysis, replace with 100 μl of MHBSS.
Make a Lucifer Yellow standard curve with the following dilutions (7500 μM, 3750 μM, 750 μM, 375 μM, 75 μM, 37.5 μM, 7.5 μM, 3.75 μM, 0.75 μM) and pipette […] of each into a 96-well plate except for the first three standards mentioned above which require a 1:10 dilutions prior to transferring to the 96-well plate.
Harvest the remaining start solutions and what is left in each apical compartment into 1.5 ml vials. Freeze at −20° C. for future analysis.
Analyze each 96-well plate in a Tecan Spectra Fluor Plus using Magellan at 485 and 535 nm.
(§8) Cells: Caco-2 cells passage 40-60 grown on Transwell® plates for 21-28 days
(§9) Culture Medium: DMEM supplemented with 10% fetal bovine serum, 1% NEAA, 1% Penn/Strep
(§10) Buffers: Hank's Balanced Salt Solution (HBSS) without calcium and magnesium
(§11) Flasks: 100×20 mm Tissue culture dish Falcon.
(§12) Plates: 12 well polycarbonate Transwell® filters; 0.3 uM pore size

[2] = test system: CaCo2 monolayers; test: Trans Epithelial Electric Resistance (TEER) across cell monolayer; type: cell-based; design: key to Reduced TEER: + indicates an enhancement of the permeability of the tight junctions were observed; − indicates no enhancement of permeability was observed; settings: Caco-2 monolayer
Source text: as §1, §2, §3, §4, §5
Using the MilliCell®-ERS instrument (Millipore), measure and record the transepithelial electrical resistance (TEER) across each filter and record.
as §6, §7
At t=30, 60, 120 and 180 minutes, measure and record the transepithelial electrical resistance (TEER) across each filter using the MilliCell-ERS instrument.
as §8, §9, §10, §11, §12

Substance: 130 (FEIGRL; also: peptide conjugate) [compound 130]
- Enhanced LY permeability [1]: −
- Reduced TEER [2]: −

Substance: 168 (F[L‑4,5‑dehydro‑leucine]IGRL; not fully specified; also: peptide conjugate) [compound 168]
- Enhanced LY permeability [1]: +
- Reduced TEER [2]: −

Substance: 35 (F[dC]IG[dR]L; not fully specified; printed as Phe-D-Cys-Ile-Gly-D-Arg-Leu) [compound 35]
- Enhanced LY permeability [1]: +
- Reduced TEER [2]: +

Substance: 132 (FNIGRL; also: peptide conjugate) [compound 132]
- Enhanced LY permeability [1]: −
- Reduced TEER [2]: +

Substance: 153 (F[Cys(StBu)]IGRL; also: peptide conjugate, Xaa: 'may be' L-S-tert-butylthio-cysteine) [compound 153]
- Enhanced LY permeability [1]: −
- Reduced TEER [2]: −

Substance: 74 (YCIGRL; not fully specified; printed as Tyr-Cys-Ile-Gly-Arg-Leu) [compound 74]
- Enhanced LY permeability [1]: +
- Reduced TEER [2]: +

Substance: 36 ([dL]RGICF; not fully specified; printed as D-Leu-Arg-Gly-Ile-Cys-Phe) [compound 36]
- Enhanced LY permeability [1]: −
- Reduced TEER [2]: −

Substance: 80 (SLIGRL-NH2; not fully specified; printed as Ser-Leu-Ile-Gly-Arg-Leu-NH2) [compound 80]
- Enhanced LY permeability [1]: +
- Reduced TEER [2]: +

Substance: 123 (FPIGRL; also: peptide conjugate) [compound 123]
- Enhanced LY permeability [1]: −
- Reduced TEER [2]: −

Substance: 194 (G[AllylGly]IGRL-NH2; N-terminus assumed; SMILES C=CC[C@H](NC(=O)CN)C(=O)N[C@H](C(=O)NCC(=O)N[C@@H](CCCNC(=N)N)C(=O)N[C@@H](CC(C)C)C(N)=O)[C@@H](C)CC) [compound 194]
- Enhanced LY permeability [1]: −
- Reduced TEER [2]: −

Substance: 12 ([dF]CIGRL; also: peptide conjugate) [compound 12]
- Enhanced LY permeability [1]: +
- Reduced TEER [2]: +

Substance: 206 (F[AllylGly]LGRL-NH2; N-terminus assumed; SMILES C=CC[C@H](NC(=O)[C@@H](N)Cc1ccccc1)C(=O)N[C@@H](CC(C)C)C(=O)NCC(=O)N[C@@H](CCCNC(=N)N)C(=O)N[C@@H](CC(C)C)C(N)=O) [compound 206]
- Enhanced LY permeability [1]: +
- Reduced TEER [2]: +

Substance: 208 (F[AllylGly]FGRL-NH2; N-terminus assumed; SMILES C=CC[C@H](NC(=O)[C@@H](N)Cc1ccccc1)C(=O)N[C@@H](Cc1ccccc1)C(=O)NCC(=O)N[C@@H](CCCNC(=N)N)C(=O)N[C@@H](CC(C)C)C(N)=O) [compound 208]
- Enhanced LY permeability [1]: +
- Reduced TEER [2]: +

Substance: 224 (F[AllylGly]IPRL-NH2; N-terminus assumed; SMILES C=CC[C@H](NC(=O)[C@@H](N)Cc1ccccc1)C(=O)N[C@H](C(=O)N1CCC[C@H]1C(=O)N[C@@H](CCCNC(=N)N)C(=O)N[C@@H](CC(C)C)C(N)=O)[C@@H](C)CC) [compound 224]
- Enhanced LY permeability [1]: −
- Reduced TEER [2]: −

Substance: 124 (FDIGRL; also: peptide conjugate) [compound 124]
- Enhanced LY permeability [1]: −
- Reduced TEER [2]: −

Substance: 109 ([Tic]CIGRL) [compound 109]
- Reduced TEER [2]: −

Substance: 141 (H-F[hSer]IGRL-OH; SMILES CC[C@H](C)[C@H](NC(=O)[C@H](CCO)NC(=O)[C@@H](N)Cc1ccccc1)C(=O)NCC(=O)N[C@@H](CCCNC(=N)N)C(=O)N[C@@H](CC(C)C)C(=O)O) [compound 141]
- Enhanced LY permeability [1]: +

Substance: 69 (H-FCIGRLC-OH; not fully specified; cysteine pairing not given here) [compound 69]
- Reduced TEER [2]: −

Substance: 104 (FCIG[Cit]L) [compound 104]
- Reduced TEER [2]: −

Substance: 77 (Ac-ACIGRS; not fully specified; printed as Ac-Ala-Cys-Ile-Gly-Arg-Ser) [compound 77]
- Reduced TEER [2]: −

Substance: 105 ([Phe(4-NO2)]CIGRL) [compound 105]
- Reduced TEER [2]: −
